Experimental data as given in patent EP0831811B1, “CARBAZOLES FOR TREATING MICROBIAL INFECTIONS” (priority 1995, dated 1996).
Counter-ions that a name gives are not always drawn.

Key:
[1] = Toxicity seen in the rat PCP treatment study; parameters: species or system Sprague-Dawley rats; conditions: in vivo, iv, 5 mg/kg
Description: (§1) The activity of the compounds against P. carinii was carried out according to an established method. See Tidwell, R. R., et al., J. Med. Chem. 33, 1252-1257 (1990); Jones, S. K., et al., Antimicrob. Agents Chemother. 34, 1026-1030 (1990); Tidwell, R.R., et al., Antimicrob. Agents Chemother. 37, 1713-1716 (1993). The induction and treatment of P. carinii pneumonia (PCP) was carried out with only minor alterations to published methods. See Frenkel, J.K. et al., Lab. Invest. 15, 1559 (1966); Hughes, W.T. et al., Antimicrob. Agents Chemother. 5, 289 (1974). Briefly, male Sprague-Dawley rats (barrier raised, not certified virus-free) weighing 150-200g each, were obtained (Hilltop Laboratories, Scottsdale, PA). Immediately upon arrival, the animals were caged individually and begun on a low protein (8%) diet and on drinking water containing tetracycline (0.5 mg/mL) and dexamethasone ([…]). This regimen was continued for eight weeks. At the beginning of the seventh week, animals were divided into groups of 8 or more, and the test compounds were administered for 14 days by single daily IV injection. Generally, the daily dose was 5 mg/kg of body weight and was dissolved in 0.4 mL of saline. Saline- and pentamidine-treated groups were included as controls.

[2] = test system: Pneumocystis carinii; assay: Rat model of P. carinii pneumonia (PCP): cysts per gram of lung; format: in vivo; conditions: for response vs control in vivo at 5 mg/kg: immunosuppressed rats, dose 5.0 mg/kg iv once daily for 14 days, means ± SEM, percent of saline-treated controls; for anti-P. carinii activity (in words): rat model, carbazoles tested at one half the dose of pentamidine
Description: as §1
Animals were sacrificed at the end of the eighth week by chloroform inhalation. The right lung was inflated in situ with 10% formalin and fixed for histological examination. The lung tissue was sectioned in the long axis and exposed to the GMS stain, which selectively identified the walls of the P. carinii cysts.
The left lung was weighed, ground through a No. 60 wire mesh screen, and suspended 1:10 (wt/vol) in 10 mM β-mercaptoethanol-Hanks' balanced salts solution (HBSS) without cations. Slides were prepared by spotting 5 µL of lung homogenate diluted 1:10 in HBSS with β-mercaptoethanol and allowed to air dry. The slides were stained with cresyl violet, and the cysts were counted by a blinded protocol. The number of cysts per gram of original lung tissue was calculated, and the groups were reported as the percentages of saline-treated controls.
Anti-P. carinii activity is measured by the reduction in the number of cysts per gram of lung tissue for treated animals as compared to untreated controls. The anti-P. carinii value for each compound is expressed as the percent of cysts in the treatment group as compared to the control group. […] It should be noted that compound 3 was tested at one half the dose of pentamidine as were all of the carbazoles.

[3] = test system: Calf thymus DNA; assay: DNA binding by thermal melting (ΔTm); conditions: for DNA binding calf thymus ΔTm(°C): absorbance at 259 nm, heated at 18°C/h, average of at least two determinations
Description: DNA binding potency was determined for each of the compounds because previous work had determined that the binding of dicationic molecules to DNA is a prerequisite for their antimicrobial activity. See e.g., Tidwell, R.R., et al., Antimicrob. Agents Chemother. 37, 1713-1716 (1993); Bell, C. A., et al., Antimicrob. Agents Chemother. 35, 1099-1107 (1991). The DNA binding of the compounds was determined by the change in melting of the DNA bound to the experimental compounds. The method is well documented and is a considered a standard method for determining DNA binding strength. See Cory, M.. et al., J. Med. Chem. 25, 431-438 (1992). In brief, a UV-visible light spectrophotometer with a cuvette changer was interfaced to a microcomputer that recorded the cuvette temperature and DNA-absorbance data at 259 nm as the sample was heated at a rate of 18°C/h. Calf thymus DNA was used at an initial absorbance of 0.3A259. The midpoint of each denaturation curve was determined after graphic selection on the computer of the starting and ending absorbance temperature for each curve of each experiment. DNA or DNA bound to experimental compound was run in each experiment and the ΔTms were determined from the polynucleotide Tm for that experiment. […] The data reported in Table 1 represent the average of at least two determinations of ΔTm.

[4] = test system: C. albicans; assay: Broth dilution antifungal susceptibility test (NCCLS M27-P), MIC and MFC; format: cell-based
Description: (§2) Activity of the compound was assessed using a standard in vitro fungal cell growth inhibition assay (the broth dilution antifungal susceptibility testing of yeast, proposed standard document M27-P, validated by the National Committee for Clinical Laboratory Standards, 1992). Briefly, this broth dilution procedure uses PMI media, and an inoculum of […] with media alone. After the minimal inhibitor concentration was determined by the above procedure, tubes with no visible growth were subcultured to determine the minimum fungicidal concentration by using criteria of less than 0.01% survival of original inoculum. Two organisms were tested: (1) H99, a clinical isolate of C. neoformans which is fully susceptible to azoles and polyenes in vitro and in vivo; and (2) A39, a clinical isolate of C. albicans which is fully susceptible to azoles and polyenes.
(§3) The MFC's (minimum fungicidal concentration) for compound 9 against these two important AIDS-associated fungal infections are shown in Table 2.

[5] = test system: Cryptococcus neoformans; assay: as above; format: cell-based
Description: as §2, §3

[6] = test system: Cryptosporidium parvum; assay: Neonatal mouse model of Cryptosporidium parvum infection: oocysts in the bowel; format: in vivo; conditions: for Efficacy: C. parvum
Description: Besides the potency shown by this compound against P. carinii infection in the rat model, the compound was also effective in a neonatal mouse model of Cryptosporidium parvum infection. This model has been described in detail in previous reports. See Blagburn, B. L.; et al., Antimicrob. Agents Chemother. 35, 1520-1523 (1991). The compound's activity against C. parvum is measured by a reduction in the number of oocysts detected in the bowel of treated mice compared to untreated controls.

[7] = Pneumocystis carinii, 336 h, read-out: in vivo activity against PCP cysts/g lung % control
[8] = in vitro fungal cell growth inhibition

Row | SMILES | toxicity [1] | response vs control in vivo at 5 mg/kg [2, 7] [%] | DNA binding calf thymus ΔTm(°C) [3] [°C] | other results
1 | c1cc2c(cc1C1=NCCN1)c1cc(C3=NCCN3)ccc1n2CC1CCCCC1 [Compound 5, 9-cyclohexylmethyl-3,6-bis(2-imidazolinyl)carbazole dihydrochloride] | 0 | 35.8 ± 4.87 |  | 
2 | CC(C)N=C(N)c1ccc2[nH]c3ccc(C(N)=NC(C)C)cc3c2c1 [Compound 2, 3,6-diisopropylamidinocarbazole dihydrochloride] | 0 | 0.11 ± 0.08 |  | 
3 | Cl.Cl.N=C(N)c1ccc2[nH]c3ccc(C(=N)N)cc3c2c1 [Compound 1, 3,6-diamidinocarbazole dihydrochloride] | 0 | 0.8 ± 0.36 | 17.2 | 
4 | Cn1c2ccc(C3=NCCCN3)cc2c2cc(C3=NCCCN3)ccc21 [Compound 6, 3,6-bis[2-(1,4,5,6-tetrahydropyrimidinyl)]-9-methylcarbazole dihydrochloride] |  | 0.14 ± 0.05 | 13.6 | 
5 | Cn1c2ccc(C3=NCCN3)cc2c2cc(C3=NCCN3)ccc21 [Compound 4, 3,6-bis(2-imidazolinyl)-9-methylcarbazole dihydrochloride] |  | 0.17 ± 0.11 |  | 
6 | Cl.Cl.N=C(N)c1ccc2c(c1)[nH]c1cc(C(=N)N)ccc12 [Compound 9, 2,7-diamidinocarbazole dihydrochloride] | 0 | 0.17 ± 0.06 | 19.0 | MIC ([4]; Candida albicans, in vitro, A39 clinical isolate of C. albicans): 0.78 µg/mL; MFC ([4]; Candida albicans, in vitro, A39 clinical isolate of C. albicans, less than 0.01% survival of original inoculum): 1.56 µg/mL; activity in vitro (in words) [4, 8]: highly active; MIC ([5]; Cryptococcus neoformans, in vitro, H99 clinical isolate of C. neoformans): 6.25 µg/mL; MFC ([5]; Cryptococcus neoformans, in vitro, H99 clinical isolate of C. neoformans, less than 0.01% survival of original inoculum): 50 µg/mL; activity in vitro (in words) [5, 8]: highly active; activity against C. parvum (in words) [6]: effective; Efficacy ([6]; 14.6 µmol/kg oral): 6.1 % control; Efficacy ([6]; 29.3 µmol/kg oral): 0.30% control; Efficacy ([6]; 58.6 µmol/kg oral): 0.89 % control
7 | N=C(N)c1ccc(OCCCCCOc2ccc(C(=N)N)cc2)cc1 [pentamidine, reference compound] |  |  | 10.7 | response vs control in vivo at 10 mg/kg ([2]; Pneumocystis carinii, iv, 336 h, read-out: in vivo activity against PCP cysts/g lung % control): 1.84 ± 0.82%
8 | c1cc2[nH]c3ccc(C4=NCCN4)cc3c2cc1C1=NCCN1 [Compound 3, 3,6-bis(2-imidazolinyl)carbazole dihydrochloride] | 0 | 0.06 ± 0.02 |  | 
9 | c1cc2c(cc1C1=NCCN1)[nH]c1cc(C3=NCCN3)ccc12 [Compound 10, 2,7-bis(2-imidazolinyl)carbazole dihydrochloride] | 0 | 0.5 ± 0.33 |  | 
10 | c1cc2[nH]c(-c3ccc4[nH]c5ccc(-c6nc7cc(C8=NCCN8)ccc7[nH]6)cc5c4c3)nc2cc1C1=NCCN1 [Compound 8, 3,6-bis[2-imidazolinyl)-2-benzimidazoyl]carbazole tetrahydrochloride] | 0 | 61.9 ± 14.5 | 22.2 | anti-P. carinii activity (in words) [2]: failed to exhibit anti-P. carinii significantly more potent than the control drug, pentamidine; anti-P. carinii activity (in words) ([2]; listed as compound 8): only moderate activity; DNA binding (in words) [3]: highly potent as a DNA binding agent
11 | c1cc2c(cc1C1=NCCCN1)c1cc(C3=NCCCN3)ccc1n2CC1CCCCC1 [Compound 7, 3,6-bis[2-(1,4,5,6-tetrahydropyrimidinyl)]-9-cyclohexylmethylcarbazole dihydrochloride] |  | 4.1 ± 1.59 | 7.3 | anti-P. carinii activity (in words) [2]: failed to exhibit anti-P. carinii significantly more potent than the control drug, pentamidine
